Target: T1, hNGAL (Homo sapiens, UniProt P80188)
T1 construct: purchased R&D Systems
Assay: hNGAL-induced intracellular profibrotic protein levels in human cardiac fibroblasts (Western blot)
Type: cell-based
Design: % inhibition versus hNGAL on Col I protein level / % inhibition versus hNGAL on Col III protein level / % inhibition versus hNGAL on Fibronectin protein level / % inhibition versus hNGAL on Galectin 3 protein level: concentration or dose not given beside the values
Method: Primary human cardiac fibroblasts (HCF) were obtained from Promocell (Heidelberg, Germany) and maintained in Fibroblast Media 3 following manufacturer’s instructions (Promocell). Cells were used between passages 5 and 7. Cells were stimulated with recombinant hNGAL (500 ng/mL, R&D Systems) or with TGFβ (10 ng/mL, R&D Systems) for 24 h. To assess cell proliferation the MTT test was used following provider’s instructions (Roche). For protein analysis. Primary Mouse Kidney Fibroblasts (MKF) were isolated from Wild Type (WT) mice. Briefly, 8 weeks old mice were sacrificed by cervical dislocation and kidneys were cleaned and rinsed in cold DPBS (Dulbecco's Phosphate-Buffered Saline). The renal cortex was minced and incubated in Dulbecco’s modified eagle medium/Nutrient mixture F-12 (DMEM/F12, Sigma) containing 1 mg/mL collagenase A (Roche) during 25 min at 37 °C. The digestion was inactivated by adding culture medium (DMEM/F12 + 10% FBS) then the cell suspension was passed through a 100-μm cell strainer. After centrifugation, the pellet (containing MKF) was diluted with culture medium then plated in 75 cm^2 culture flask. After 24 h MKF were washed with DPBS before replacement of fresh culture medium. Thereafter, culture medium was changed every 48 h. Once 70–80% confluent, MKF were trypsinized and plated in 12 or 6-well plates. For experimental use, MKF were starved with culture medium containing only 3% FBS. MKF were treated with mNGAL (500 ng/mL, R&D Systems) or with TGFβ (10 ng/mL, R&D Systems) for 6 h for gene expression analysis.
Total protein aliquots of 20 μg were prepared from cardiac homogenates and HCF and electrophoresed on SDS polyacrylamide gels and transferred to Hybond-c Extra nitrocellulose membranes (Amersham Biosciences). Membranes were incubated with primary antibodies for: Collagen I (Santa Cruz; dilution 1:500), Collagen type III (Santa Cruz; dilution 1:500), fibronectin (Millipore, 1:500), Galectin-3 (Thermo, 1:1000), α-SMA (Sigma, 1:1000), CTGF (Santa Cruz, 1:200), CD68 (Abcam, 1:500), CD80 (Santa Cruz, 1:500), CD86 (Santa Cruz, 1:500). […] After densitometric analyses, optical density values were expressed as arbitrary units. Results are expressed as an n-fold increase over the values of the control group in densitometric arbitrary units.

[1] = Table S2, human cardiac fibroblasts

T1 sequence (P80188 21-198): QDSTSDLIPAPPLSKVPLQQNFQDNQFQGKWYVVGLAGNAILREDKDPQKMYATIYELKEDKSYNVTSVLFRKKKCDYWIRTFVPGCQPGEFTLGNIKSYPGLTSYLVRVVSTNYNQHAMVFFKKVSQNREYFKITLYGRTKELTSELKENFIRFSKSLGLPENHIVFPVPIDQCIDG

`CC(=O)c1cccc(S(=O)(=O)NCc2ccccc2-n2cccn2)c1` [GPZ614741] was tested, and the “hNGAL-induced expression of intracellular profibrotic proteins (Col I, Col III, fibronectin, Gal3), in words” value (10 µM, human cardiac fibroblasts, Fig. 1D) was “blocked”, the “Col III synthesis (protein level)” value (Table S2, hNGAL-treated human cardiac fibroblasts, Control 1.0, NGAL 1.67, mean ± SEM) was 1.05 ± 0.1 and the “Fibronectin synthesis (protein level)” value (Table S2, hNGAL-treated human cardiac fibroblasts, Control 1.0, NGAL 1.8, mean ± SEM) was 0.95 ± 0.2. For the same molecule, the “Col I synthesis (protein level)” value (Table S2, hNGAL-treated human cardiac fibroblasts, Control 1.0, NGAL 2.03, mean ± SEM) was 1.09 ± 0.2, the “Galectin-3 synthesis (protein level)” value (Table S2, hNGAL-treated human cardiac fibroblasts, Control 1.0, NGAL 2.1, mean ± SEM) was 1.3 ± 0.1 and the “% inhibition versus hNGAL on Col I protein level” value [1] was 46.4%. The “% inhibition versus hNGAL on Col III protein level” value [1] was 37.1%, the “% inhibition versus hNGAL on Fibronectin protein level” value [1] was 47.2% and the “% inhibition versus hNGAL on Galectin 3 protein level” value [1] was 38.1%.
